Measurements as given in US4360595A, “Fermentation process for producing anandimycin” (Bristol-Myers Company, priority 1981, dated 1982).
≈ marks a conversion by molar mass, not a printed value. Entries after “also recorded” stand apart in the source; their conditions may differ.

How the values were obtained:
Str. pneumoniae 9585 = assay: in vitro MIC, standard tube dilution procedure; type: cell-based; settings: Streptococcus pneumoniae; Str. pneumoniae 9585; read-out: Minimum Inhibitory Concentration
Procedure: (§1) The in vitro minimum inhibitory concentrations (MIC) of anandimycin were determined against a variety of microorganisms using the standard tube dilution procedure.

Pr. vulgaris 21559 = assay: in vitro MIC, standard tube dilution procedure; type: cell-based; settings: Proteus vulgaris; Pr. vulgaris 21559; read-out: Minimum Inhibitory Concentration
Procedure: as §1

Staph. aureus 9587 = assay: in vitro MIC, standard tube dilution procedure; type: cell-based; settings: Staphylococcus aureus; Staph. aureus 9587; read-out: Minimum Inhibitory Concentration
Procedure: as §1

K. pneumoniae 15130 = assay: in vitro MIC, standard tube dilution procedure; type: cell-based; settings: Klebsiella pneumoniae; K. pneumoniae 15130; read-out: Minimum Inhibitory Concentration
Procedure: as §1

Pr. mirabilis 9900 = assay: in vitro MIC, standard tube dilution procedure; type: cell-based; settings: Proteus mirabilis; Pr. mirabilis 9900; read-out: Minimum Inhibitory Concentration
Procedure: as §1

E. coli 20341-1 = assay: in vitro MIC, standard tube dilution procedure; type: cell-based; settings: Escherichia coli, 203411; E. coli 20341-1; read-out: Minimum Inhibitory Concentration
Procedure: as §1

Ent. cloacae 9659 = assay: in vitro MIC, standard tube dilution procedure; type: cell-based; settings: Enterobacter cloacae; Ent. cloacae 9659; read-out: Minimum Inhibitory Concentration
Procedure: as §1

Ps. aeruginosa 9843A = assay: in vitro MIC, standard tube dilution procedure; type: cell-based; settings: Pseudomonas aeruginosa; Ps. aeruginosa 9843A; read-out: Minimum Inhibitory Concentration
Procedure: as §1

[1] = test system: Staph. aureus (penicillin-resistant) 9606; assay: in vitro MIC, standard tube dilution procedure; type: cell-based; settings: Staphylococcus aureus, read-out: Minimum Inhibitory Concentration
Procedure: as §1

Str. faecalis 20,588 = assay: in vitro MIC, standard tube dilution procedure; type: cell-based; settings: Enterococcus faecalis; Str. faecalis 20,588; read-out: Minimum Inhibitory Concentration
Procedure: as §1

Str. pyogenes 9604 = assay: in vitro MIC, standard tube dilution procedure; type: cell-based; settings: Streptococcus pyogenes; Str. pyogenes 9604; read-out: Minimum Inhibitory Concentration
Procedure: as §1

Ser. marcescens 20019 = assay: in vitro MIC, standard tube dilution procedure; type: cell-based; settings: Serratia marcescens; Ser. marcescens 20019; read-out: Minimum Inhibitory Concentration
Procedure: as §1

E. coli 15119 = assay: in vitro MIC, standard tube dilution procedure; type: cell-based; settings: Escherichia coli; E. coli 15119; read-out: Minimum Inhibitory Concentration
Procedure: as §1

[2] = solubility in organic solvents (trituration, chromatography); type: physicochemical; settings: solvents for (preparative) chromatography
Source text: The solids obtained from extraction of the whole broth are next washed with diethyl ether to remove any lard oils and antifoams used in the fermentation. […] To remedy this problem a simple organic solvent trituration scheme was developed which effects a gross separation of the yellow pigments and another class of antitumor agents produced by strain C-22,437 (rachelmycin) from anandimycin on the basis of differential solubility. […] The first step involves trituration of the extraction solids with acetone. The resulting filtrate contains another antitumor substance which is active in the lysogenic bacteria induction assay and the P388 mouse tumor system (rachelmycin). The insoluble solid from the acetone trituration contains the yellow pigments along with a complex of anandimycin and another similar compound. The second phase of the process involves trituration with a ternary organic solvent system 40:30:30(^v/v) chloroform:methanol:tetrahydrofuran. The soluble fraction contains the yellow pigments. […] Substantially pure anandimycin is separated from the enriched mixture using high pressure liquid chromatography on silica gel as described in more detail below.
The analytical solvent system routinely used is hexane:ethyl acetate:isopropanol (30:70:3^v /v) along with 0.1 to 0.4 part water depending on the relative activity state of the silica gel surface in the column being used. If tailing effects are observed, then typically one increases the water content of the solvent system within the 0.1-0.4 part range to improve peak symmetry, thereby permitting a more quantitative analysis.
The preparative solvent system is ethyl acetate:isopropanol:water (87:13:0.5^v /v). […] A shave-recycle method involves increasing the effective silica gel column length through the employment of continuous multiple pass chromatography of the anandimycin-component II band. […] Initial chromatography gave anandimycin enriched to 70-85% purity. Accumulated solids are rechromatographed to yield material of >90% purity. […]

[3] = biological activity (in words)
P-388 leukemia = assay: transplantable mouse tumor P-388 leukemia; type: in vivo, mouse (CDF1 female mice); settings: filtrate of acetone trituration
Procedure: Anandimycin was also tested against the transplantable mouse tumor P-388 leukemia. The methodology used generally followed the protocols of the National Cancer Institute (Cancer Chemotherapy Rep., Part 3, 3, 1-103 (1972). The essential experimental details are given at the bottom of the following table. Two different dose regimens are tested: single dose on day 1 and three doses given on days 1, 5 and 9. The optimal dose was 64 mg/kg. single dose.
Tumor inoculum: 10^6 ascites cells implanted
Host: CDF1 .female. mice
Evaluation: MST = median survival
Effect: % T/C = (MST treated/MST control) ×
Criteria: % T/C ≥ 125 considered significant antitumor
Tox: […] 4/6 mice alive on day 5
AWC = average weight gain (treatedcontrol) in grams (on day 4)

[4] = antimicrobial / antibiotic activity (in words); type: cell-based
E. coli = assay: lysogenic bacterial induction (ILB) assay; type: cell-based
Source text: Analytical high pressure liquid chromatography, Bacillus subtilis zone of inhibition, lysogenic bacterial induction and P388 mouse tumor assays are used throughout the above-described separation processes to monitor relative levels of anandimycin and co-produced substances.

SMILES | MIC (Str. pneumoniae 9585) | MIC (Pr. vulgaris 21559) | MIC (Staph. aureus 9587) | MIC (K. pneumoniae 15130) | MIC (Pr. mirabilis 9900) | MIC (E. coli 20341-1) | MIC (Ent. cloacae 9659) | MIC (Ps. aeruginosa 9843A) | MIC [1] | MIC (Str. faecalis 20,588) | MIC (Str. pyogenes 9604) | MIC (Ser. marcescens 20019) | MIC (E. coli 15119) | solubility in chromatography solvents [2] | biological activity [3] | activity in the P388 mouse tumor system (P-388 leukemia) | antimicrobial / antibiotic activity [4] | lysogenic bacterial induction activity (E. coli)
COc1cc2c(oc(=O)c3cc(O)cc(OC)c32)c2c(C3OC(C(C)O)C(O)C3O)ccc(O)c12 (stereo not drawn) [Component II] | 0.25 µg/mL (≈ 0.516 µM) | > 63 µg/mL | 0.13 µg/mL (≈ 0.268 µM) | > 63 µg/mL | > 63 µg/mL | > 63 µg/mL | > 63 µg/mL | > 63 µg/mL | 0.5 µg/mL (≈ 1.03 µM) | 0.13 µg/mL (≈ 0.268 µM) | 0.5 µg/mL (≈ 1.03 µM) | > 63 µg/mL | > 63 µg/mL | poor solubility | biologically inactive | – | – | –
COc1c(O)c2c(c3cc(C(=O)N4CCc5c4c(O)c(OC)c4[nH]c(C(=O)N6CC7CC78C6=CC(=O)c6[nH]cc(C)c68)cc54)[nH]c13)CCN2C(N)=O (stereo not drawn) [rachelmycin, reference compound] | – | – | – | – | – | – | – | – | – | – | – | – | – | – | – | active | possesses both antibiotic and lysogenic bacterial induction activity | active; also recorded: possesses both antibiotic and lysogenic bacterial induction activity
